Results taken from patent publication US9464326B2, “Total and phosphorylated IL-1 receptor-associated kinase-1 and IL-1 receptor-associated kinase-4 as a biomarker for cancer progression and chemotherapy resistance” (University of Maryland, Baltimore, priority 2012, dated 2016).

Legend:
[1] = system: A375 melanoma cells; experiment: A375 melanoma xenograft model; settings: IRAK-1,-4 inhibitor 35 mg/kg intratumorally, vinblastine 0.25 mg/kg i.p.; control 17 days
Method: (A-B) NSG mice (n=5) were injected subcutaneously with A375 melanoma cells. When tumors reached a size of approximately 50 mm^2 mice remained untreated or injected intraperitoneally with vinblastine mg/kg; administered every 2 days for 10 days), or peritumorally with IRAK-1,-4 inhibitor (35 mg/kg), or vinblastine plus IRAK.-1,-4 inhibitor. Tumor sizes were calculated by measuring perpendicular by longitudinal diameter;*, P<0.05. Mouse survival data were analyzed using the exact log-rank test;*, P<0.05, **P<0.001.
NOD.Cg-Prkdc^scid Il2rg^tmWJZ; SzJ IL2RG (NSG) mice (Jackson Laboratories, Bar Harbor, Me.) were subcutaneously (s.c.) injected with 2.5×10^6 A375 melanoma cells delivered in PBS. […] When tumors reached a size of approximately 50 mm^2 mice were injected intratumorally (i.t.) with 35 mg/kg of IRAK-1,-4 inhibitor or an equal volume of vehicle (DMSO). Mice were intraperitoneally (i.p.) injected with vinblastine (0.25 mg/kg) every 2 days for 5 days starting on the same day that mice received with IRAK-1,-4 inhibitor. Tumor sizes were analyzed using a mixed model approach for repeated measurements and mouse survival data were analyzed with the exact log-rank test.

[2] = system: patient T-ALL cells; experiment: Patient T-ALL numbers in NSG mice (flow cytometry); assay type: in vivo; settings: patient T-ALL cells in irradiated NSG mice; 10 mg/Kg i.p. days 7, 10, 13; FIG. 12
Method: FIG. 12. […] NSG mice were irradiated (400 cGy) one day prior to intravenous injection of patient T-ALL cells (6×10^6 cells/mouse). Once 100 T-ALL cells/ul of blood were detected, mice were received one intraperitoneal injection with IRAK-1,-4 inhibitor (10 mg/Kg) or an equal volume of control vehicle (DMSO) on days 7, 10 and 13. Numbers of T-ALL cells (CD7^+) in peripheral blood were determined on day 27 and D21 by flow cytometry as described in FIG. 1. All the data shown are representative of two independent experiments (±SD) with three mice per group. Representative dot plots from bone marrow are shown in A (left panel). ANOVA; *P<0.05.
CCRF-CEM (2×10^6) cells were injected intravenously (i.v.) into female NOD.Cg-Prkdc^scid Il2rg^tm1WJl/SzJ IL2RG (NSG) mice (Jackson Laboratories, Bar Harbor, Me.). […] In some experiments mice were injected i.v. with TLR1-TLR2 ligand (2.5 μg) two days after injecting cells. In other experiments mice were injected intraperitoneally (i.p.) with IRAK-1,-4 inhibitor (10 mg/kg) 3, 6, and 9 days (CCRF-CEM cells) or 7, 10, and 13 days (patient T-ALL cells) after detecting CD7^+ T-ALL cells in circulation. The numbers of T-ALL cells in the bone marrow, spleen, liver, and in circulation were determined by staining cells with anti-human CD7 and/or CD5. […]

[3] = system: MO; experiment: Proliferation (3H-thymidine) of MO; assay type: cell-based, human; settings: 3H-thymidine uptake, 72 h
Source text: CCRF-CEM, CEM/C1, CEM/C2, CEM-C7, Jurkat, Loucy, Molt-4, HSB-2, SUP-T1, Hut 78, HH, Hut 102, MO, and H9 T-leukemia and T-lymphoma cell lines were purchased from the American Type Culture Collection (Manassas, Va., USA). All of the cell lines were initially expanded and cryopreserved within one month of receipt. Cells were typically used for 6 months at which time a fresh vial of cryopreserved cells was used. Total T cells from healthy donors were isolated via negative selection followed by positive selection using a CD3+ selection kit (Invitrogen, Carlsbad, Calif.). T cells were isolated from patients with T-ALL bone marrow or peripheral blood samples containing more than 70% leukemia cells using a CD2+ isolation kit (STEMCELL Technologies, Vancouver, Canada). All tissues were collected under institutional IRB-approved protocols and all participants gave written informed assent/consent. For in vitro experiments, T-ALL cells were cultured in AIM-V medium supplemented with 20% human AB serum in the presence of recombinant human stem cell factor (50 ng/mL; Amgen, Thousand Oaks, Calif.), insulin (20 nM; Sigma-Aldrich, St Louis, Mo., USA) and IL-7 (50 ng/mL; R&D Systems, Minneapolis, Minn., USA). […]
Cells were cultured in a 96-well plate (Corning Costar, Corning, N.Y., USA) with various concentrations of TLR ligands 1-9, starting at 10 μg/ml, in a final volume of 200 ul. […] After this time point, cells were harvested with a Packard Filter-Mate-96 cell harvester (Perkin Elmer, Waltham, Mass., USA) and counted on Packard Top Count-NXT (Perkin Elmer, Waltham, Mass., USA). Results were expressed as average counts per minute (cpm). […] Forty-eight hours later, proliferation (±SD) was determined by ^3H-thymidine incorporation. Alternatively, apoptosis was measured by flow cytometry after staining cells with Annexin-V (BD Pharmingen, San Diego, Calif., USA) and propidium iodide (Sigma). Cell number was counted under microscopy by staining cells with trypan blue. […]

[4] = system: Primary T-cells Activated; experiment: Proliferation (3H-thymidine) of activated primary T-cells; assay type: cell-based, human
Source text: (§1) CCRF-CEM, CEM/C1, CEM/C2, CEM-C7, Jurkat, Loucy, Molt-4, HSB-2, SUP-T1, Hut 78, HH, Hut 102, MO, and H9 T-leukemia and T-lymphoma cell lines were purchased from the American Type Culture Collection (Manassas, Va., USA). All of the cell lines were initially expanded and cryopreserved within one month of receipt. Cells were typically used for 6 months at which time a fresh vial of cryopreserved cells was used. Total T cells from healthy donors were isolated via negative selection followed by positive selection using a CD3+ selection kit (Invitrogen, Carlsbad, Calif.). T cells were isolated from patients with T-ALL bone marrow or peripheral blood samples containing more than 70% leukemia cells using a CD2+ isolation kit (STEMCELL Technologies, Vancouver, Canada). All tissues were collected under institutional IRB-approved protocols and all participants gave written informed assent/consent. For in vitro experiments, T-ALL cells were cultured in AIM-V medium supplemented with 20% human AB serum in the presence of recombinant human stem cell factor (50 ng/mL; Amgen, Thousand Oaks, Calif.), insulin (20 nM; Sigma-Aldrich, St Louis, Mo., USA) and IL-7 (50 ng/mL; R&D Systems, Minneapolis, Minn., USA). In other experiments, protein lysate was collected using the Full Moon Biosystems (Sunnyvale, Calif., USA) buffer prior to protein examination by western blot or protein array.
(§2) Cells were cultured in a 96-well plate (Corning Costar, Corning, N.Y., USA) with various concentrations of TLR ligands 1-9, starting at 10 μg/ml, in a final volume of 200 ul. TLR ligands were diluted 2-fold. Cell lines (25-40×10^3/well) were cultured for 54 hours, whereas fresh patient-derived T-ALL cells (200×10^3/well) were cultured for 30 hours prior to adding [^3H]-thymidine for 18 hours. After this time point, cells were harvested with a Packard Filter-Mate-96 cell harvester (Perkin Elmer, Waltham, Mass., USA) and counted on Packard Top Count-NXT (Perkin Elmer, Waltham, Mass., USA). Results were expressed as average counts per minute (cpm). In some experiments CCRF-CEM cells were pre-treated with TLR1-TLR2 ligand (Pam3CysK4; 2.5 ug/ml) for 48 hrs, washed, and then cultured in the presence of varying concentrations of FBS. Forty-eight hours later, proliferation (±SD) was determined by ^3H-thymidine incorporation. Alternatively, apoptosis was measured by flow cytometry after staining cells with Annexin-V (BD Pharmingen, San Diego, Calif., USA) and propidium iodide (Sigma). Cell number was counted under microscopy by staining cells with trypan blue.
(§3) The following TLR ligands were purchased from Invivogen (San Diego, Calif., USA): tripalmitoyl-S-(bis(palmitoyloxy)propyl)-Cys-Ser-(Lys)3-Lys (TLR1-2); Poly I:C (TLR3); ultrapure S. Minnesota Lipopolysaccharide (TLR4); S. typhimurium flagellin (TLR5); FSL-1 (TLR2/6); Imiquimod (TLR7); ssRNA40/Lyovec (TLR8); CpG-ODN 2006 (TLR9).

[5] = system: SupT1; experiment: Proliferation (3H-thymidine) of SupT1; assay type: cell-based, human
Source text: as §1, §2, §3

[6] = system: CEM-C2; experiment: Proliferation (3H-thymidine) of CEM-C2; assay type: cell-based, human
Source text: as §1
as §2, with “blue. […]” for “blue.”

| Molecule | median survival [1] | T-ALL numbers (CD7+) in peripheral blood [2] | Proliferative effects of TLR ligands [3] | Proliferative effects of TLR ligands ([4]; Primary T-cells, Activated, 3H-thymidine uptake, 72 h) | TLR ligand concentration in parentheses below the symbol ([4]; Primary T-cells, Activated, no unit in table (μg/ml)) | effect on proliferation / T-cell expansion (in words) ([4]; T cells from healthy donors, together with T cell receptor stimulation, FIG. 1A) | Proliferative effects of TLR ligands ([5]; SupT1, 3H-thymidine uptake, 72 h) | effect on proliferation (in words) ([5]; SupT1 T-lymphoblastic leukemia, FIG. 1A) | Proliferative effects of TLR ligands ([6]; 3H-thymidine uptake, 72 h) | TLR ligand concentration in parentheses below the symbol ([6]; no unit in table (μg/ml)) |
| --- | --- | --- | --- | --- | --- | --- | --- | --- | --- | --- |
| O=C(Nc1nc2ccccc2n1CCN1CCOCC1)c1cccc([N+](=O)[O-])c1 [IRAK-1,-4 inhibitor] | 19 days | reduces T-ALL numbers |  |  |  |  |  |  |  |  |
| tripalmitoyl-S-(bis(palmitoyloxy)propyl)-Cys-Ser-(Lys)3-Lys [Pam3Cysk4] |  |  | ∘ | + (enhanced proliferation by 25% or greater) | (10) | enhanced proliferation | ∘ | no effect on proliferation | + (enhanced proliferation by 25% or greater) | (2.5) |
